“Also recorded” adds a separate entry of the source. Like-named read-outs stand apart in the source and are kept apart here. Numbered stars: 1 amine (or outer) side, 2 acyl side, 3 side chain; on linkers, the order of the positions; unused ones are H or OH. Square brackets hold non-standard residues; d marks the D form. Peptide text beside a SMILES is read from it. X1 = NCCCC[C@H](N)CN([C@@H](CCCCN)C(=O)[*:2])[*:1]; Ala(SiMe3) = C[Si](C)(C)C[C@H](N)C(=O)O; Dmt = Cc1cc(O)cc(C)c1C[C@H](N)C(=O)O; Tle = CC(C)(C)[C@H](N)C(=O)O
What was measured:
hNTS1 [1] = target: T1, hNTS1 (Homo sapiens, UniProt P30989); test: Competitive radioligand binding assay, 125I-[Tyr3]-NT displacement, CHO-K1 cell membranes
T1 sequence (P30989 whole entry): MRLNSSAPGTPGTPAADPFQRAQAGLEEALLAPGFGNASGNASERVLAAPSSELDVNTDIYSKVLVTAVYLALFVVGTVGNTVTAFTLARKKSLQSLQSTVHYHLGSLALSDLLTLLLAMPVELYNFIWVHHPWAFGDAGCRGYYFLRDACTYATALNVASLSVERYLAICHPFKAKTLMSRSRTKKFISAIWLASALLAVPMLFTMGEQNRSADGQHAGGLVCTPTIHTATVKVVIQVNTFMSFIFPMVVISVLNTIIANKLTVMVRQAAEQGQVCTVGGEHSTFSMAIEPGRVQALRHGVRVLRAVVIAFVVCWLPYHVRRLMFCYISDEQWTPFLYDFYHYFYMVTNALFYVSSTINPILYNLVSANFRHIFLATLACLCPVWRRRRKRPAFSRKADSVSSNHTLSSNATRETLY
Description: (§1) All media and additives are from Wisent (St-Bruno, QC). […] After 1 h of incubation at room temperature, the binding reaction mixture was transferred in polyethylenimine-coated 96-well-filter plates (Millipore, Billerica, MA). Reaction was terminated by filtration, and plates were washed three times with 200 μl of ice-cold binding buffer. […] Data were plotted using GraphPad Prism 8 using the One-site—Fit log (IC50) and represent the mean ± SEM of at least three separate experiments performed in triplicate.

hNTS2 [2] = target: T2, hNTS2 (Homo sapiens, UniProt O95665); test: Competitive radioligand binding assay, 125I-[Tyr3]-NT displacement, 1321N1 cell membranes; settings: ratio of Ki hNTS1 to Ki hNTS2
T2 sequence (O95665 whole entry): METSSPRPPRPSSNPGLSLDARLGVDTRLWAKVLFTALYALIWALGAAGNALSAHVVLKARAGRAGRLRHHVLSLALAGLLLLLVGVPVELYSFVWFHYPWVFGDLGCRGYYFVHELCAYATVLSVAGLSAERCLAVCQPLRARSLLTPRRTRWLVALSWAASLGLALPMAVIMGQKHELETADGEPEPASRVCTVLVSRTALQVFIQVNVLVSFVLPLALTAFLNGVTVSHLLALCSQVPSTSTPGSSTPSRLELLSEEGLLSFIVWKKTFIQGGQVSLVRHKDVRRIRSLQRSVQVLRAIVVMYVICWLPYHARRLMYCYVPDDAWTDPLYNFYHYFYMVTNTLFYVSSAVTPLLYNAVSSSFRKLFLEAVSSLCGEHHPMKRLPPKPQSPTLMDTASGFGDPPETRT
Description: as §1

Sprague-Dawley rats = test: Body temperature measurement after intrathecal injection; format: in vivo; settings: rat; for effect on body temperature: compared to the saline-treated group; for Hypothermia ΔTemp: 30 μg/kg, i.t., change in body temperature from baseline at 60 min
Text: The experimental procedures in this study were approved by the Animal Care Committee of the Université de Sherbrooke (protocol n°035-18B) and were in accordance with policies and directives of the Canadian Council on Animal Care. Adult male Sprague-Dawley rats, weighing 175–225 g (Charles River laboratories, St-Constant, Québec, Canada), were maintained on a 12-h light/dark cycle with free access to food and water and were housed two per cage on Aspen shavings in a quiet room.
Rats were lightly anesthetized with isoflurane/oxygen (Baxter corporation, Mississauga, ON, Canada; 2 L/min) flow and 25 μl of each compound were injected intrathecally with a 27-G 1/2 needle (BD PrecisionGlide, USA) into the subarachnoid space between vertebrae L5 and L6. Analogs 1–14 were diluted in physiological saline at 5 mg/ml, whereas compounds 15 and 16 were diluted in DMSO. For body temperature measurement, the injected solution of these both compounds contained 6% DMSO at final concentration (30 μg/kg).
Three consecutive days prior to testing, animals were individually acclimatized to manipulations and to a thermistor probe 5 min per day. The day of the test, experiments were always performed in a quiet room and between 8:00 and 12:00 PM. to reduce any variation related to the circadian rhythm. Body temperature was measured using a thermistor probe inserted into the rectum of adult Sprague-Dawley rats. Temperatures were recorded immediately before (baseline) and each 10 min for up to 60 min following intrathecal administration of saline, vehicle (6% DMSO) or NT analogs at 30 μg/kg. Changes in body temperature (Δ body temp) from baseline were determined for each animal. Data are expressed as mean ± SEM of 5 to 20 animals per condition.
Data are expressed as mean ± standard errors of the mean (SEM). All graphs and statistical analysis were performed using GraphPad Prism 8 (GraphPad software, La Jolla, CA, USA). A two-way ANOVA followed by Bonferroni's multiple comparisons test was used to determine significant differences between drug- and vehicle-treated rats at different timepoints post-injection.

hNTS1 [3] = target: T1, hNTS1; settings: 2015, cited from earlier work
hNTS2 [4] = target: T2, hNTS2; settings: Ki values taken from the literature (Figure 1 legend) ref Fanelli et al., 2015; Eiselt et al., 2019; read-out: Binding, Ki hNTS2; cited from earlier work
[5] = Plasma stability assay (UPLC/MS); format: in vitro ADME; settings: rat, plasma, 37°C, incubation up to 24 h
Description: Rat plasma was obtained from blood by keeping the translucent phase after centrifugation at 15,000 g over 5 min. Plasma stability assay was carried out by incubating each compound at different incubation times in rat plasma at a final concentration of 0.156 mM. […] Then, 70 μl of a solution containing 10% trichloroacetic acid (TCA) and 0.5% nicotinamine, an internal standard, was added to stop the degradation by proteases. After centrifugation at 15,000 g for 30 min, supernatant was filtered through 0.22-μm filter and analyzed by UPLC/MS (Water H Class Acquity UPLC, mounted with Acquity UPLC BEH C18 column, 1.7 μm, 2.1 × 50 mm and paired to a SQ Detector 2). Compounds 1, 2, and 5 were analyzed using the mass or UV spectrum. Quantification was done by determining the area under the curve (AUC) ratio of each compound over AUC of nicotinamine for each incubation time. Data were plotted into GraphPad Prism 8 and the half-life of each compound was calculated using one-phase decay fit and represented the mean ± SEM of minimum three separate experiments.

[6] = Ki values taken from the literature (Figure 1 legend) ref Fanelli et al., Eiselt et al., 2019, read-out: Binding, Ki hNTS1

SMILES | fold increase in affinity at NTS1 (hNTS1 [1]; compared to 1) [fold] | fold increase in affinity at NTS1 (hNTS1 [1]; compared to native NT(8-13)) [fold] | NTS1/NTS2 selectivity (hNTS2 [2]) | effect on body temperature (Sprague-Dawley rats; 30 μg/kg i.t.) | Hypothermia ΔTemp (Sprague-Dawley rats) [°C] | Ki (hNTS1 [3]; [6]) [nM] | Ki (hNTS1 [3]; ref Fanelli et al., read-out: Ki NTS1) [nM] | Ki (hNTS2 [4]) [nM] | half-life at 0.156 mM [5] [h] | temperature drop (Sprague-Dawley rats; for up to 60 min, 30 μg/kg i.t.)
CC[C@H](C)[C@H](NC(=O)[C@H](Cc1ccc(O)cc1)NC(=O)[C@@H]1CCCN1C(=O)[C@H](CCCCN)NC(=O)[C@@H](N)CCCCN)C(=O)N[C@@H](C[Si](C)(C)C)C(=O)O [Compound 3, H-Lys-Lys-Pro-Tyr-Ile-TMSAla-OH] (H-KKPYI[Ala(SiMe3)]-OH) | 220 | 80 | 0.1 | not effective in reducing the body temperature; also recorded: not effective to induce drop in body temperature | −0.07 ± 0.1 | 0.018 ± 0.004 | ~0.02 | 0.25 ± 0.07 |  | 
Cc1cc(O)cc(C)c1C[C@H](NC(=O)[C@@H]1CCCN1C(=O)[C@H](CCCCN)NC[C@@H](N)CCCCN)C(=O)N[C@H](C(=O)N[C@@H](CC(C)C)C(=O)O)C(C)(C)C [Compound 16, H-Lysψ[CH2NH]Lys-Pro-Dmt-Tle-Leu-OH] (H-[X1]P[Dmt][Tle]L-OH) |  |  | 79 | long-lasting hypothermia | −2.0 ± 0.3 | 110 ± 2 |  | 1.4 ± 0.5 | > 20 | more than 2 °C
